Experimental findings from ChEMBL document CHEMBL1146974, “Identification and structure-activity relationships of a new series of Melanocortin-4 receptor antagonists” (Bioorg Med Chem Lett, 2006) are described below.

pIC50, pKi: −log10 of the molar value.

The target of data set [1] is T1, Melanocortin receptor 4 (Homo sapiens, UniProt P32245). The data set can be described thus: Binding affinity to MC4R by membrane filtration assay.
Data set [2] deals with T1, Melanocortin receptor 4. Briefly: Antagonist activity against MC4R by cAMP functional assay.
Data set [3] addresses Voltage-gated inwardly rectifying potassium channel KCNH2 (Homo sapiens, UniProt Q12809). Briefly: Binding affinity to hERG.
Data set [4] can be described thus: Oral bioavailability in rat. The settings on record: in vivo. The data set is classed as ADME, organism-based.
The nature of data set [5]: Plasma half life in iv dosed rat. The data set is classed as ADME, organism-based.

T1 sequence (P32245 whole entry): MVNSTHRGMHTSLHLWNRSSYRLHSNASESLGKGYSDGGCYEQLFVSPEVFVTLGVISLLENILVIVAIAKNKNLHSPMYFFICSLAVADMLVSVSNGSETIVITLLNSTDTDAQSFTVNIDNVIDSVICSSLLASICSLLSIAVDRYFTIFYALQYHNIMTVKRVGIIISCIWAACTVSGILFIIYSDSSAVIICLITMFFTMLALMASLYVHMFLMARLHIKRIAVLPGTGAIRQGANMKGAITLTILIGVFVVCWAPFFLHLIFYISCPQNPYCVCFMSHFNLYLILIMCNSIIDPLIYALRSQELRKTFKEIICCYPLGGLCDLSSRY
Sequence of Voltage-gated inwardly rectifying potassium channel KCNH2 (Q12809 whole entry): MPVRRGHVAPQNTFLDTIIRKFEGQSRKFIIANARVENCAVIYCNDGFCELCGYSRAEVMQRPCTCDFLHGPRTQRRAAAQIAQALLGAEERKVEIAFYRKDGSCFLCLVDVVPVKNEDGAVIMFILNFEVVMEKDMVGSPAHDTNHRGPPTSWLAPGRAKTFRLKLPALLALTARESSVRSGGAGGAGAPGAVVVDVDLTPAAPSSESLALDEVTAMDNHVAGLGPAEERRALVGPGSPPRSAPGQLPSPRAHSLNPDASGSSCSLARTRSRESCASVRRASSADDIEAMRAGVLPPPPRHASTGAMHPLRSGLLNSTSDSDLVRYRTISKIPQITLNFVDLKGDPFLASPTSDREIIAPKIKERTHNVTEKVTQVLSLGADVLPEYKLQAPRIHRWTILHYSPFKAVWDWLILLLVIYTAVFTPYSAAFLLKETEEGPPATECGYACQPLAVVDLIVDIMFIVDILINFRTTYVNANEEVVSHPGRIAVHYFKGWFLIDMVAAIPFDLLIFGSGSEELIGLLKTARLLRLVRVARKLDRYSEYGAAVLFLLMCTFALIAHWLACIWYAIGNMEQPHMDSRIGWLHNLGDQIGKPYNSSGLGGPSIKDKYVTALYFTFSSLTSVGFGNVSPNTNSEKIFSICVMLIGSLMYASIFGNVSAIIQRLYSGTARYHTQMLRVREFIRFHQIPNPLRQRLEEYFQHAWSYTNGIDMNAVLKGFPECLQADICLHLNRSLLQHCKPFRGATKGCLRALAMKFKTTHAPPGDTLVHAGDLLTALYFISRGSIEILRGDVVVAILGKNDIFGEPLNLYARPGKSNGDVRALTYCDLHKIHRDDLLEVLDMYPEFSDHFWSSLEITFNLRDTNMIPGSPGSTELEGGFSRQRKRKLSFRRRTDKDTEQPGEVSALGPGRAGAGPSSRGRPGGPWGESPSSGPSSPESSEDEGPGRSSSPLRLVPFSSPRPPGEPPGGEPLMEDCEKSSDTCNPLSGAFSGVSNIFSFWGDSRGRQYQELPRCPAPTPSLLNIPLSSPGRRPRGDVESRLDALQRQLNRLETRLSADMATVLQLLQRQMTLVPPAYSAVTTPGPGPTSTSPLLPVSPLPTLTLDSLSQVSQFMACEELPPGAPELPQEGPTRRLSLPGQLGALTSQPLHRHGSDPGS

Usually pKi stands for −log10 of the Ki, conventionally taken in molar units. The term pIC50 denotes the IC50 on a negative log10 scale, so that one unit is a factor of ten. Low values mean a large IC50, high ones a small IC50. In data set [1], `COc1ccc(Br)cc1CCc1c(F)cccc1C(=O)/N=C(\N)NCCCCN(C)Cc1cccc2ccccc12` gave a negative logarithm of the Ki (pKi) of 7.24. The molecule further showed a pIC50 in data set [2] of 5.92.

The molecule `COc1ccc(Br)cc1CCc1c(F)cccc1C(=O)/N=C(\N)NCCCCN1CCc2ccccc2C1` showed a pKi in data set [1] of 7.59. In addition, in data set [2], the negative logarithm of the IC50 (pIC50) is 6.19.

`CCN(CC)CCCC(C)N=C(N)NC(=O)c1cccc(F)c1OCc1cc(Br)ccc1OC` (stereo not given) showed a pKi in data set [1] of 6.05. In data set [2], the negative-log IC50 (pIC50) is 6.28.

As for `CCN(CC)CCCC(C)/N=C(/N)NC(=O)c1cccc(F)c1CCc1cc(Br)ccc1OC` (stereo not given), the negative logarithm of the Ki (pKi) in data set [1] is 8.37. Moreover, the negative-log IC50 (pIC50) in data set [2] is 6.89.

`CCCCN=C(N)NC(=O)c1cccc(F)c1CCc1cc(Br)ccc1OC` showed a pKi in data set [1] of 6.04.

As to `CCN(CC)CCCC(C)/N=C(/N)NC(=O)c1cccc(F)c1CCc1cccc2ccccc12` (stereo not given), the negative logarithm of the Ki (pKi) in data set [1] is 7.05. Further, the pIC50 in data set [2] was 5.82.

`CCN1CCC(C/N=C(/N)NC(=O)c2cccc(F)c2CCc2cc(Br)ccc2OC)CC1` showed a pKi in data set [1] of 8.55. In data set [2], this molecule had a pIC50 of 7.01.

Take `CCN(CC)CCCC(C)N=C(N)NC(=O)c1cccc(F)c1CCc1ccccc1Cl` (stereo not given): in data set [1], the negative-log Ki (pKi) is 4.59. This molecule also showed a pIC50 in data set [2] of under 4.48.

Take `CCN(CC)CCCC(C)/N=C(\NC(=O)c1cccc(F)c1CCc1cc(Br)ccc1OC)NC(C)C` (stereo not given): the pKi in data set [1] was 5.60. This molecule also showed a negative logarithm of the IC50 (pIC50) in data set [2] of 4.77.

`COc1ccc(Br)cc1CCc1c(Cl)cccc1C1=NCCN1`: the negative-log Ki (pKi) in data set [3] was 6.08.

With `COc1ccc(Br)cc1CCc1c(F)cccc1C(=O)/N=C(\N)NCCCCN1CCCCC1`, the pKi in data set [1] is 9.24. For the same molecule, the pIC50 in data set [2] is 7.15.

Take `COc1ccc(Br)cc1CCc1c(F)cccc1C(=O)/N=C(\N)NCCCNC1CCCCC1`: the pKi in data set [1] is 7.10. The pIC50 in data set [2] is 5.24.

`COc1ccc(Br)cc1CCc1c(F)cccc1C(=O)NC(N)=NCCCN1CCN(C)CC1` gave a pKi in data set [1] of 7.19. The negative-log IC50 (pIC50) in data set [2] was 6.17.

For `CCN(CC)CCCC(C)N=C(N)NC(=O)c1cccc(F)c1CCc1cc(Br)ccc1Cl` (stereo not given), the pKi in data set [1] is 6.96. For the same molecule, the negative logarithm of the IC50 (pIC50) in data set [2] is 6.18.

By bioavailability is commonly meant dose-corrected exposure relative to a reference, in per cent. Lower therefore signals little systemic uptake. Usually half-life stands for the time needed for the level to fall by half in the phase considered. High values mean slow decline, low ones rapid decline. `COc1ccc(Br)cc1CCc1c(F)cccc1C(=O)/N=C(\N)NCCCN1CCCCC1`: the negative logarithm of the Ki (pKi) in data set [1] was 8.49. This molecule gave a bioavailability in data set [4] of 6.3%. In data set [2], this molecule gave a negative logarithm of the IC50 (pIC50) of 6.48. The half-life in data set [5] was 31 h.

Molecule `COc1ccc(Br)cc1CCc1c(F)cccc1C(=O)/N=C(\N)NCCN1CCCC1` gave a negative-log Ki (pKi) in data set [1] of 6.72. This molecule gave a negative-log IC50 (pIC50) in data set [2] of 5.35.

In turn, `CCN(CC)CCCC(C)/N=C(\NC(=O)c1cccc(F)c1CCc1cc(Br)ccc1OC)Nc1ccccc1` (stereo not given) showed a negative logarithm of the Ki (pKi) in data set [1] of 5.39.

The molecule `COc1ccc(Br)cc1CCc1c(F)cccc1C(=O)/N=C(\N)NCC(C)C` had a pKi in data set [1] of 6.11. In data set [2], this molecule showed a pIC50 of 5.07.

The molecule `COc1ccc(Br)cc1CCc1c(F)cccc1C(=O)NC(N)=NCCC1CCCCC1` had a pKi in data set [1] of 5.59.

In the case of `CCN(CC)CCCC(C)N=C(N)NC(=O)c1ccsc1CCc1cc(Br)ccc1OC` (stereo not given), the pKi in data set [1] was 7.96. Moreover, the negative logarithm of the IC50 (pIC50) in data set [2] was 6.59.

Take `CCN(CC)CCCC(C)N=C(N)NC(=O)c1cccc(F)c1CCc1ccc2ccccc2c1` (stereo not given): in data set [1], the negative-log Ki (pKi) was 6.16. For the same molecule, in data set [2], the pIC50 was 5.74.

`COc1ccc(Br)cc1CCc1c(F)cccc1C(=O)/N=C(\N)NCCCCN(C)Cc1ccccc1` showed a negative logarithm of the Ki (pKi) in data set [1] of 8.29. For the same molecule, in data set [2], the negative-log IC50 (pIC50) is 6.74.

In data set [1], `CCN(CC)CCCC(C)/N=C(/NC)NC(=O)c1cccc(F)c1CCc1cc(Br)ccc1OC` (stereo not given) had a negative logarithm of the Ki (pKi) of 5.20.

Consider `CCN(CC)CCCC(C)N=C(N)NC(=O)c1cccc(F)c1CCc1cc(OC)cc(OC)c1` (stereo not given), for which the negative-log Ki (pKi) in data set [1] was 7.85. Besides, in data set [2], the pIC50 was 6.77.

With `CCN(CC)CCCC(C)N=C(N)NC(=O)c1cccc(Cl)c1CCc1cc(Br)ccc1OC` (stereo not given), the pKi in data set [1] is 9.08. Also, the pIC50 in data set [2] is 6.59.

In data set [1], `COc1ccc(Br)cc1CCc1c(F)cccc1C(=O)/N=C(\N)NCCCCN1CCC2CCCCC2C1` (stereo not given) showed a pKi of 7.68. This molecule had a pIC50 in data set [2] of 6.41.

The molecule `COc1ccc(Br)cc1CCc1c(F)cccc1C1=NCCN1` registered a bioavailability in data set [4] of 4.6%. In data set [5], this molecule gave a half-life of 1 h.

In data set [1], `COc1ccc(Br)cc1CCc1c(Cl)cccc1C(=O)N=C(N)N` gave a pKi of 6.15. In data set [2], the pIC50 is 5.59.

Regarding `COc1ccc(Br)cc1CCc1c(F)cccc1C(=O)NC(N)=NCC1CCNCC1`, the negative-log Ki (pKi) in data set [1] was 7.89. For the same molecule, the negative logarithm of the IC50 (pIC50) in data set [2] is 7.51.
